Active and inactive are the calls of the source. Rule as the data show it: actives have a measured IC50 and inactives only a lower limit.
target: Envelope glycoprotein gp160 (Human immunodeficiency virus 1, UniProt Q6QLK5); assay: inhibitors of HIV fusion peptide binding, primary screen, biochemical, uHTS, fluorescence dequenching (AID 1986)
Sequence (Q6QLK5 whole entry, the tested form may be a part): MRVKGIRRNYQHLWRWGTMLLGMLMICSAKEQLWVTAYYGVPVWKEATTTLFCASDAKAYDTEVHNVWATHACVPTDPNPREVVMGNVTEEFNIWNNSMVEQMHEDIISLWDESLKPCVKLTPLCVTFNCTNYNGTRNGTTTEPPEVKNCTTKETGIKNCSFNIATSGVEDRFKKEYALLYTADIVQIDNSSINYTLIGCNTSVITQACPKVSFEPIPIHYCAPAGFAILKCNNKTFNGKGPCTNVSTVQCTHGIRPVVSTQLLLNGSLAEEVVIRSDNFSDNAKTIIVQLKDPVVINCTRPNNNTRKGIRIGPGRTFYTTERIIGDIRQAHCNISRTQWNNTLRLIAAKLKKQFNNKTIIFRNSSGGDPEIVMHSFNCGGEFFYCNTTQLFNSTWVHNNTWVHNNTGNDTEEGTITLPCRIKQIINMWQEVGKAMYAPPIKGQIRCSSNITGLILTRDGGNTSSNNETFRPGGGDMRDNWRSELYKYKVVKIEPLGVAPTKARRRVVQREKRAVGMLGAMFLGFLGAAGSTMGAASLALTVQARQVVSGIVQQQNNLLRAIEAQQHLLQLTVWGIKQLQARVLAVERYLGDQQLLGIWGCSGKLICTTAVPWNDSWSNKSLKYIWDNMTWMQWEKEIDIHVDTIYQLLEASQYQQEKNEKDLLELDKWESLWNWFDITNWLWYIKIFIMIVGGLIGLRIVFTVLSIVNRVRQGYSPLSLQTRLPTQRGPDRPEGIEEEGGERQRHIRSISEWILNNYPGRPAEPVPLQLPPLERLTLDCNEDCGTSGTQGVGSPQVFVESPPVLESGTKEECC

SMILES	IC50
COc1cc(/C=C2\C(=N)N3N=C(S(C)(=O)=O)SC3=NC2=O)cc(OC)c1OCCOc1ccccc1C	14.6 µM (active)
Cc1ccc(-n2cccc2/C=C2/C(=N)N3C(=NC2=O)SN=C3S(C)(=O)=O)cc1Cl	6.32 µM (active)
O=C1NN(c2ccc(Cl)c(Cl)c2)C(=O)/C1=C/c1ccc(-c2ccccc2C(=O)O)o1	15.7 µM (active)
O=C(O)c1cccc(NC(=S)N/N=C/c2ccccc2OCc2cccc(Br)c2)c1	13.2 µM (active)
